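Following 48 hours of exposure in 96-well plates, responses at five concentrations were used to interpolate endpoints linearly. Here, GI50 denotes the concentration required for 50% inhibition of growth. TGI denotes the concentration required for complete inhibition of growth.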
Key:
Assay in all cases: growth of human tumour cells (NCI), 48 h
DU-145 prostate = test system: DU-145 prostate
HOP-62 NSCLC = test system: HOP-62 NSCLC
CAKI-1 renal = test system: CAKI-1 renal
OVCAR-3 ovarian = test system: OVCAR-3 ovarian
NCI-H522 lung = test system: NCI-H522 lung
HT29 colon = test system: HT29 colon
UACC-62 melanoma = test system: UACC-62 melanoma
OVCAR-5 ovarian = test system: OVCAR-5 ovarian
SK-MEL-28 melanoma = test system: SK-MEL-28 melanoma
K-562 leukemia = test system: K-562 leukemia
SNB-75 CNS = test system: SNB-75 CNS
SF-539 CNS = test system: SF-539 CNS
NCI-H460 lung = test system: NCI-H460 lung
SF-295 CNS = test system: SF-295 CNS
HCC-2998 colon = test system: HCC-2998 colon
SN12C renal = test system: SN12C renal
A549 NSCLC = test system: A549 NSCLC
MCF7 breast = test system: MCF7 breast
HL-60(TB) leukemia = test system: HL-60(TB) leukemia
EKVX NSCLC = test system: EKVX NSCLC
M14 melanoma = test system: M14 melanoma
CCRF-CEM leukemia = test system: CCRF-CEM leukemia
NCI-H23 lung = test system: NCI-H23 lung
OVCAR-4 ovarian = test system: OVCAR-4 ovarian
NCI-H226 lung = test system: NCI-H226 lung
786-0 renal = test system: 786-0 renal
OVCAR-8 ovarian = test system: OVCAR-8 ovarian
RPMI-8226 leukemia = test system: RPMI-8226 leukemia
TK-10 renal = test system: TK-10 renal
MALME-3M melanoma = test system: MALME-3M melanoma
HCT-15 colon = test system: HCT-15 colon
MDA-MB-435 = test system: MDA-MB-435
KM12 colon = test system: KM12 colon
SK-OV-3 ovarian = test system: SK-OV-3 ovarian
SK-MEL-5 melanoma = test system: SK-MEL-5 melanoma
HCT-116 colon = test system: HCT-116 colon
SNB-19 CNS = test system: SNB-19 CNS
SW-620 colon = test system: SW-620 colon
PC-3 prostate = test system: PC-3 prostate
ACHN renal = test system: ACHN renal
MOLT-4 leukemia = test system: MOLT-4 leukemia
COLO 205 colon = test system: COLO 205 colon
HOP-92 NSCLC = test system: HOP-92 NSCLC
IGROV1 ovarian = test system: IGROV1 ovarian
BT-549 breast = test system: BT-549 breast
U251 CNS = test system: U251 CNS
SF-268 CNS = test system: SF-268 CNS
T-47D breast = test system: T-47D breast
SK-MEL-2 melanoma = test system: SK-MEL-2 melanoma
SR leukemia = test system: SR leukemia
MDA-MB-231 breast = test system: MDA-MB-231 breast
NCI/ADR-RES ovarian = test system: NCI/ADR-RES ovarian

Compound `CCOC(=O)c1c2c(n(Cc3ccc(Cl)cc3Cl)c1C)-c1nc(Cc3ccccc3)[nH]c1C(=O)C2=O` has a GI50 (DU-145 prostate) of 1.78 µM, a TGI (DU-145 prostate) of 3.3 µM and a GI50 (HOP-62 NSCLC) of 2.32 µM. For the same compound, the TGI (HOP-62 NSCLC) was 5.48 µM, the GI50 (CAKI-1 renal) was 2.31 µM and the TGI (CAKI-1 renal) was 4.01 µM. The GI50 (OVCAR-3 ovarian) was 1.8 µM, the TGI (OVCAR-3 ovarian) was 3.6 µM and the GI50 (NCI-H522 lung) was 2.2 µM. It also gave a TGI (NCI-H522 lung) of 4.68 µM, a GI50 (HT29 colon) of 2.72 µM and a TGI (HT29 colon) of 8.61 µM. For the same compound, the GI50 (UACC-62 melanoma) was 1.82 µM, the TGI (UACC-62 melanoma) was 3.48 µM and the GI50 (OVCAR-5 ovarian) was 2.25 µM. It also gave a TGI (OVCAR-5 ovarian) of 4.56 µM, a GI50 (SK-MEL-28 melanoma) of 1.69 µM and a TGI (SK-MEL-28 melanoma) of 3.3 µM. It also gave a GI50 (K-562 leukemia) of 1.97 µM, a TGI (K-562 leukemia) of 5.25 µM and a GI50 (SNB-75 CNS) of 1.88 µM. It also gave a TGI (SNB-75 CNS) of 3.63 µM, a GI50 (SF-539 CNS) of 2.14 µM and a TGI (SF-539 CNS) of 3.97 µM. The GI50 (NCI-H460 lung) was 2.27 µM, the TGI (NCI-H460 lung) was 4.9 µM and the GI50 (SF-295 CNS) was 1.99 µM. For the same compound, the TGI (SF-295 CNS) was 4.59 µM, the GI50 (HCC-2998 colon) was 1.93 µM and the TGI (HCC-2998 colon) was 3.78 µM. For the same compound, the GI50 (SN12C renal) was 2.22 µM, the TGI (SN12C renal) was 4.75 µM and the GI50 (A549 NSCLC) was 3.84 µM. For the same compound, the TGI (A549 NSCLC) was over 100 µM, the GI50 (MCF7 breast) was 2.55 µM and the TGI (MCF7 breast) was 6.08 µM. For the same compound, the GI50 (HL-60(TB) leukemia) was 1.57 µM, the TGI (HL-60(TB) leukemia) was 3.71 µM and the GI50 (EKVX NSCLC) was 2.24 µM. The TGI (EKVX NSCLC) was 4.49 µM, the GI50 (M14 melanoma) was 2.3 µM and the TGI (M14 melanoma) was 5.05 µM. The GI50 (CCRF-CEM leukemia) was 1.81 µM, the TGI (CCRF-CEM leukemia) was 4.45 µM and the GI50 (NCI-H23 lung) was 2.03 µM. The TGI (NCI-H23 lung) was 4.29 µM, the GI50 (OVCAR-4 ovarian) was 1.87 µM and the TGI (OVCAR-4 ovarian) was 4.8 µM. For the same compound, the GI50 (NCI-H226 lung) was 2.19 µM, the TGI (NCI-H226 lung) was 4.68 µM and the GI50 (786-0 renal) was 1.82 µM. It also gave a TGI (786-0 renal) of 3.47 µM, a GI50 (OVCAR-8 ovarian) of 3.49 µM and a TGI (OVCAR-8 ovarian) of 50.4 µM. It also gave a GI50 (RPMI-8226 leukemia) of 2.25 µM, a TGI (RPMI-8226 leukemia) of 4.65 µM and a GI50 (TK-10 renal) of 2.12 µM. It also gave a TGI (TK-10 renal) of 3.65 µM, a GI50 (MALME-3M melanoma) of 2 µM and a TGI (MALME-3M melanoma) of 3.66 µM. For the same compound, the GI50 (HCT-15 colon) was 2.15 µM, the TGI (HCT-15 colon) was 4.64 µM and the GI50 (MDA-MB-435) was 1.99 µM. It also gave a TGI (MDA-MB-435) of 3.75 µM, a GI50 (KM12 colon) of 1.47 µM and a TGI (KM12 colon) of 2.89 µM. The GI50 (SK-OV-3 ovarian) was 5.02 µM, the TGI (SK-OV-3 ovarian) was 19.3 µM and the GI50 (SK-MEL-5 melanoma) was 1.8 µM. The TGI (SK-MEL-5 melanoma) was 3.27 µM, the GI50 (HCT-116 colon) was 1.68 µM and the TGI (HCT-116 colon) was 3.07 µM. It also gave a GI50 (SNB-19 CNS) of 3.51 µM, a TGI (SNB-19 CNS) of 45.2 µM and a GI50 (SW-620 colon) of 2.11 µM. The TGI (SW-620 colon) was 4.07 µM, the GI50 (PC-3 prostate) was 1.92 µM and the TGI (PC-3 prostate) was 4.9 µM. The GI50 (ACHN renal) was 1.75 µM, the TGI (ACHN renal) was 3.17 µM and the GI50 (MOLT-4 leukemia) was 1.94 µM. For the same compound, the TGI (MOLT-4 leukemia) was 4.87 µM, the GI50 (COLO 205 colon) was 2.42 µM and the TGI (COLO 205 colon) was 5.85 µM. It also gave a GI50 (HOP-92 NSCLC) of 1.62 µM, a TGI (HOP-92 NSCLC) of 3.06 µM and a GI50 (IGROV1 ovarian) of 2.31 µM. For the same compound, the TGI (IGROV1 ovarian) was 5.07 µM, the GI50 (BT-549 breast) was 2.07 µM and the TGI (BT-549 breast) was 3.87 µM. The GI50 (U251 CNS) was 2.11 µM, the TGI (U251 CNS) was 4.62 µM and the GI50 (SF-268 CNS) was 1.94 µM. It also gave a TGI (SF-268 CNS) of 4.28 µM, a GI50 (T-47D breast) of 2.65 µM and a TGI (T-47D breast) of 33.3 µM. For the same compound, the GI50 (SK-MEL-2 melanoma) was 2.83 µM, the TGI (SK-MEL-2 melanoma) was 9.2 µM and the GI50 (SR leukemia) was 1.78 µM. It also gave a TGI (SR leukemia) of 3.82 µM, a GI50 (MDA-MB-231 breast) of 1.93 µM and a TGI (MDA-MB-231 breast) of 3.56 µM. The GI50 (NCI/ADR-RES ovarian) was 3.19 µM and the TGI (NCI/ADR-RES ovarian) was 10.6 µM.

— PubChem BioAssay (NCI)
